Results reported in patent US20250145665A1, “MACROCYCLIC PEPTIDES USEFUL AS MODULATORS OF TNF ALPHA” (Bristol-Myers Squibb Company, priority 2023, published 2025).
Starred links: 1 amine or outer side, 2 acyl side, 3 side chain; linkers in the order of their positions; H or OH if unused. Positions of bridges follow the written chain, without caps; N, C: chain ends. Non-standard residues stand in square brackets, D forms with d. Residues, ends and D or L forms follow the SMILES beside them. ξ: configuration not given here. *: point of attachment. dArg(Nω-CH2C6H4-3-CH2Gua) = N=C(N)NCc1cccc(CNC(=N)NCCC[C@@H](N)C(=O)O)c1; Bip(4'-NHBz) = N[C@@H](Cc1ccc(-c2ccc(NC(=O)c3ccccc3)cc2)cc1)C(=O)O; Bip(4'-NH) = O=C([C@H](Cc1ccc(-c2ccc(N[*:3])cc2)cc1)N[*:1])[*:2]; Indazole3carbonyl(1-CH2COOH) = O=C(O)Cn1nc(C(=O)*)c2ccccc21; Bip(4'-COOH) = N[C@@H](Cc1ccc(-c2ccc(C(=O)O)cc2)cc1)C(=O)O; Bip(4'-NHAc) = CC(=O)Nc1ccc(-c2ccc(C[C@H](N)C(=O)O)cc2)cc1; X1 = N=C(NCCC[C@@H](N[*:1])C(=O)[*:2])NCCc1ccc2ccccc2c1; X58 = N=C(NCCC[C@@H](N[*:1])C(=O)[*:2])NCCc1cccc(N)c1; Ala(morpholin-4-yl) = N[C@@H](CN1CCOCC1)C(=O)O; Phe(3-CONH2) = NC(=O)c1cccc(C[C@H](N)C(=O)O)c1; Bip = N[C@@H](Cc1ccc(-c2ccccc2)cc1)C(=O)O; 2Pal = N[C@@H](Cc1ccccn1)C(=O)O; 2Thi = N[C@@H](Cc1cccs1)C(=O)O; Cha = N[C@@H](CC1CCCCC1)C(=O)O; Tle = CC(C)(C)[C@H](N)C(=O)O; X50 = O=C(O)COc1ccccc1C(=O)*; Aze = O=C(O)[C@@H]1CCN1; ξP = O=C(O)C1CCCN1; Sar = CNCC(=O)O

target: TNFα (Homo sapiens, UniProt P01375); experiment: TNF-Induced HEK-Blue Assay; type: cell-based; conditions: not given
Sequence (P01375 77-233 limits assumed): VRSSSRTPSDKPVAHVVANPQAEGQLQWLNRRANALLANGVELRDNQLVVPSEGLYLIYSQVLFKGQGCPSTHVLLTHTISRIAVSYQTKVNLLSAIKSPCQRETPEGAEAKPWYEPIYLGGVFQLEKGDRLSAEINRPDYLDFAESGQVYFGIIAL

SMILES	IC50
CC(C)C[C@@H]1NC(=O)[C@H](CCCNC(=N)N)NC(=O)[C@H](C(C)C)NC(=O)C2CCCN2C(=O)[C@H](C(C)C)NC(=O)[C@@H](CCCNC(=N)NCCc2cccc(N)c2)NC(=O)[C@H](CC(=O)O)NC(=O)[C@@H]2CCCN2C(=O)CN(C)C(=O)[C@H](Cc2ccc(-c3ccc(NC(=O)c4nn(CC(=O)O)c5ccccc45)cc3)cc2)NC(=O)[C@H](Cc2ccc(-c3ccc(C(=O)O)cc3)cc2)NC(=O)[C@H](CN2CCOCC2)NC(=O)CSC[C@@H](C(=O)NCC(N)=O)NC1=O (stereo partly shown) [Example 406] ({CH2CO}-[Ala(morpholin-4-yl)][Bip(4'-COOH)][Bip(4'-NH)](Indazole3carbonyl(1-CH2COOH))[Sar]PD[X58]V[ξP]VRLCG-NH2; thioether N-13)	50 to 200 nM
CC[C@H](C)[C@@H]1NC(=O)[C@@H]2CCCN2C(=O)[C@H]([C@@H](C)CC)NC(=O)[C@@H](CCCNC(=N)N)NC(=O)[C@H](CC(=O)O)NC(=O)[C@H](Cc2ccccn2)NC(=O)CN(C)C(=O)[C@H](Cc2ccc(-c3ccc(NC(=O)c4ccccc4)cc3)cc2)NC(=O)[C@H](Cc2ccc(-c3ccccc3)cc2)NC(=O)[C@H](C(C)(C)C)NC(=O)CSC[C@@H](C(=O)NCC(N)=O)NC(=O)[C@H](CC(C)C)NC(=O)[C@H](Cc2cccc(C(N)=O)c2)NC1=O [Example 367] ({CH2CO}-[Tle][Bip][Bip(4'-NHBz)][Sar][2Pal]D[dR]IPI[Phe(3-CONH2)]LCG-NH2; thioether N-13)	< 50 nM
CC[C@H](C)[C@@H]1NC(=O)[C@@H](CCCNC(=N)NCc2cccc(CNC(=N)N)c2)NC(=O)[C@H](CC(=O)O)NC(=O)[C@@H]2CCCN2C(=O)CN(C)C(=O)[C@H](Cc2ccc(-c3ccc(NC(=O)c4nn(CC(=O)O)c5ccccc45)cc3)cc2)NC(=O)[C@H](Cc2ccc(-c3ccccc3)cc2)NC(=O)[C@H](CN2CCOCC2)NC(=O)CSC[C@@H](C(=O)NCC(N)=O)NC(=O)[C@H](CC(C)C)NC(=O)[C@H](Cc2cnc[nH]2)NC(=O)[C@H](C(C)C)NC(=O)[C@@H]2CCCN2C1=O [Example 598] ({CH2CO}-[Ala(morpholin-4-yl)][Bip][Bip(4'-NH)](Indazole3carbonyl(1-CH2COOH))[Sar]PD[dArg(Nω-CH2C6H4-3-CH2Gua)]IPVHLCG-NH2; thioether N-13)	< 50 nM
CC(C)C[C@@H]1NC(=O)[C@H](CCCNC(=N)N)NC(=O)[C@H](C(C)C)NC(=O)[C@@H]2CCCN2C(=O)[C@H](C(C)C)NC(=O)[C@@H](CCCNC(=N)NCCc2ccc3ccccc3c2)NC(=O)[C@H](CC(=O)O)NC(=O)[C@@H]2CCCN2C(=O)CN(C)C(=O)[C@H](Cc2ccc(-c3ccc(NC(=O)c4nn(CC(=O)O)c5ccccc45)cc3)cc2)NC(=O)[C@H](Cc2ccc(-c3ccccc3)cc2)NC(=O)[C@H](CN2CCOCC2)NC(=O)CSC[C@@H](C(=O)NCC(N)=O)NC1=O [Example 433] ({CH2CO}-[Ala(morpholin-4-yl)][Bip][Bip(4'-NH)](Indazole3carbonyl(1-CH2COOH))[Sar]PD[X1]VPVRLCG-NH2; thioether N-13)	50 to 200 nM

same assay, conditions: HEK-Blue-CD40L cells, NF-kB-driven secreted alkaline phosphatase reporter; TNFα 0.5 ng/ml; 18 h; read-out: TNF induced HEK-Blue assay IC50 value

IC50	SMILES
< 50 nM	CC(C)C[C@@H]1NC(=O)[C@H](Cc2ccc(O)cc2)NC(=O)[C@H](C(C)C)NC(=O)[C@@H]2CCN2C(=O)[C@H](C(C)C)NC(=O)[C@@H](CCCNC(=N)N)NC(=O)[C@H](CC(=O)O)NC(=O)[C@H](Cc2ccc(O)cc2)NC(=O)CN(C)C(=O)[C@H](Cc2ccc(-c3ccccc3)cc2)NC(=O)[C@H](Cc2ccc(-c3ccc(C(=O)O)cc3)cc2)NC(=O)[C@H](CN2CCOCC2)NC(=O)CSC[C@@H](C(=O)NCC(N)=O)NC1=O [Example 147] ({CH2CO}-[Ala(morpholin-4-yl)][Bip(4'-COOH)][Bip][Sar]YD[dR]V[Aze]VYLCG-NH2; thioether N-13)
< 50 nM	CC[C@H](C)[C@@H]1NC(=O)[C@@H](CCCNC(=N)N)NC(=O)[C@H](CC(=O)O)NC(=O)[C@H](Cc2cnc[nH]2)NC(=O)CN(C)C(=O)[C@H](Cc2ccc(-c3ccc(NC(=O)c4ccccc4OCC(=O)O)cc3)cc2)NC(=O)[C@H](Cc2ccc(-c3ccccc3)cc2)NC(=O)[C@H](CC2CCCCC2)NC(=O)CSC[C@@H](C(=O)NCC(N)=O)NC(=O)[C@H](CC(C)C)NC(=O)[C@H](Cc2cnc[nH]2)NC(=O)[C@H](C(C)C)NC(=O)[C@@H]2CCCN2C1=O [Example 329] ({CH2CO}-[Cha][Bip][Bip(4'-NH)](X50)[Sar]HD[dR]IPVHLCG-NH2; thioether N-13)
< 50 nM	CC[C@H](C)[C@@H]1NC(=O)[C@@H](CCCNC(=N)N)NC(=O)[C@H](CC(=O)O)NC(=O)[C@H](Cc2ccccn2)NC(=O)CN(C)C(=O)[C@H](Cc2ccc(-c3ccc(NC(C)=O)cc3)cc2)NC(=O)[C@H](Cc2ccc(-c3ccccc3)cc2)NC(=O)[C@H](CN2CCOCC2)NC(=O)CSC[C@@H](C(=O)NCC(N)=O)NC(=O)[C@H](CC(C)C)NC(=O)[C@H](Cc2cccs2)NC(=O)[C@H](C(C)C)NC(=O)[C@@H]2CCCN2C1=O [Example 604] ({CH2CO}-[Ala(morpholin-4-yl)][Bip][Bip(4'-NHAc)][Sar][2Pal]D[dR]IPV[2Thi]LCG-NH2; thioether N-13)
